Measurements taken from patent EP1976513B1 (priority 2006, dated 2007).
Where two headings read alike, the source gives them in different places.

Experiments:
[1] = target: T1, human dopamine reuptake transporter (Homo sapiens, UniProt Q01959); experiment: cell-based
T1 construct: expressed in transfected cells; host or cells: CHO-K1 or HEK293

[2] = target: human serotonin reuptake transporter (Homo sapiens, UniProt P31645); experiment: cell-based
[3] = recombinant human dopamine transporter (DAT), read-out: Human IC50 (nM) hDAT
[4] = recombinant human serotonin transporter (SERT), read-out: Human IC50 (nM) hSERT
[5] = Human IC50 (nM) hSERT, recombinant human serotonin transporter (SERT)
[6] = read-out: Human IC50 (nM) hSERT

T1 sequence (Q01959 whole entry): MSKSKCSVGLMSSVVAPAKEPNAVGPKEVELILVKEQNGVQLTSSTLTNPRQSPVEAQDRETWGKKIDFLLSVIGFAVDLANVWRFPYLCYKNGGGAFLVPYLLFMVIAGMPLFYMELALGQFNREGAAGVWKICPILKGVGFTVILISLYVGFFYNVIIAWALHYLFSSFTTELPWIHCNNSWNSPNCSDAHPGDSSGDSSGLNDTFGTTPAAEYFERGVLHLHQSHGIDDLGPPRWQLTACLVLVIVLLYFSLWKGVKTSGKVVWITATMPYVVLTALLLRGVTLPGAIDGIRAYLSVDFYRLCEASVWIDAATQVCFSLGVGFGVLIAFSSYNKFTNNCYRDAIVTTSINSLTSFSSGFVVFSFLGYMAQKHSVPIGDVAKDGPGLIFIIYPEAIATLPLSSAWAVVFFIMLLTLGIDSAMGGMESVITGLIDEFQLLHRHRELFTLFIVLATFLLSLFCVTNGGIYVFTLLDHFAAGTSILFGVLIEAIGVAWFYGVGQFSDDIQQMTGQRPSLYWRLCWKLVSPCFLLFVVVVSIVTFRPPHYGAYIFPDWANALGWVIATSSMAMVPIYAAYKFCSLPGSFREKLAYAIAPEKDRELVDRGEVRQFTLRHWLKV
human serotonin reuptake transporter, sequence (P31645 whole entry): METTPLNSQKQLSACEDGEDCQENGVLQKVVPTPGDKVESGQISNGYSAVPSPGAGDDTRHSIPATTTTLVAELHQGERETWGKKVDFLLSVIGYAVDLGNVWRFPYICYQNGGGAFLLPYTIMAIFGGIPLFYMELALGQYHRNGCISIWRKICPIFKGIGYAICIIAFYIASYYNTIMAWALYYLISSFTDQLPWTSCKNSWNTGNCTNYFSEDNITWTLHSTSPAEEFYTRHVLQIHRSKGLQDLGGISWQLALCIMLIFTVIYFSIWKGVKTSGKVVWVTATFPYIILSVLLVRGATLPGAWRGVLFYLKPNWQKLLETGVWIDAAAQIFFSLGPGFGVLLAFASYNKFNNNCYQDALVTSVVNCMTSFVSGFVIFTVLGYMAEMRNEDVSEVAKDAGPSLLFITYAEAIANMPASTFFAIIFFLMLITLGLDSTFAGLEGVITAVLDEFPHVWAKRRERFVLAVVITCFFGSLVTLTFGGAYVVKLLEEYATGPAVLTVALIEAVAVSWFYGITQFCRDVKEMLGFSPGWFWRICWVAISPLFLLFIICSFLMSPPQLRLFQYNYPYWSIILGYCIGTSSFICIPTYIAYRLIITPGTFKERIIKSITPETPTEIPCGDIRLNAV

Compound | IC50 [1, 3] [nM] | IC50 [2, 4] [nM] | further results
CC(N(C)C)C1(c2ccc3ccccc3c2)CCC(C)(O)CC1 (single isomer, unassigned) [234 E2, 4-(1-(dimethylamino)ethyl)-1-methyl-4-(naphthalen-2-yl)cyclohexanol] | 21 | 18 | –
NCC1(c2ccc3ccccc3c2)CC=CCC1 (racemic) [Compound 291, (1-(naphthalen-2-yl)cyclohex-3-enyl)methanamine] | 72 | 185 | –
CNC(C)C1(c2ccc3ccccc3c2)CCC(C)(O)CC1 (single isomer, unassigned) [231 E1, 1-methyl-4-(1-(methylamino)ethyl)-4-(naphthalen-2-yl)cyclohexanol] | 460 | 1280 | –
NCC1(c2ccc(-c3cc(F)cc(F)c3)cc2)CCCCC1 [Compound 23, (1-(3',5'-difluorobiphenyl-4-yl)cyclohexyl)methanamine] | 682 | 62 | –
c1ccc2cc(C3(C4CCCN4)CCCCC3)ccc2c1 (stereo not shown) [Compound 297, 2-(1-(naphthalen-2-yl)cyclohexyl)pyrrolidine] | 13 | 40 | –
NCC1(c2ccc3c(c2)OCO3)CCC(O)CC1 (stereo not shown) [Compound 214, 4-(aminomethyl)-4-(benzo[d][1,3]dioxol-5-yl)cyclohexanol] | > 10000 | > 10000 | –
CNC(=O)[C@]1(c2ccc3ccccc3c2)CCCC[C@H]1O (relative stereo) [Compound 301, trans-2-hydroxy-N-methyl-1-(naphthalen-2-yl)cyclohexanecarboxamide] | 8780 | > 10000 | –
NCC1(c2ccc(Cl)c(F)c2)CCCCC1 [Compound 98, (1-(4-chloro-3-fluorophenyl)cyclohexyl)-methanamine] | 419 | – | IC50 [2, 5]: > 10000 nM
CN(C)CC1(c2ccc(Cl)c(Cl)c2)CCC(O)CC1 (stereo not shown) [Compound 263, 4-(3,4-dichlorophenyl)-4-((dimethylamino)methyl)cyclohexanol] | 498 | 674 | –
CC(N(C)C)C1(c2ccc3ccccc3c2)CCC(C)(O)CC1 (single isomer, unassigned) [234 E1, 4-(1-(dimethylamino)ethyl)-1-methyl-4-(naphthalen-2-yl)cyclohexanol] | 346 | 3380 | –
CNCC1(c2ccc3ccccc3c2)CCC(C)(O)CC1 (stereo not shown) [Compound 222, 1-methyl-4-((methylamino)methyl)-4-(naphthalen-2-yl)-cyclohexanol] | – | 609 | IC50 ([1]; read-out: Human IC50 (nM) hDAT): 2090 nM
NCC1(c2ccc3c(c2)OCO3)CCCCC1 [Compound 35, (1-(benzo[d][1,3]dioxol-5-yl)cyclohexyl)methanamine] | 4710 | – | IC50 [2, 5]: > 10000 nM
NCC1(c2ccc(F)c3ccccc23)CCCCC1 [Compound 40, (1-(4-fluoronaphthalen-1-yl)cyclohexyl)methanamine] | 2320 | 753 | –
CN(C)CC1(c2ccc(Cl)c(Cl)c2)CCC(Oc2ccccc2)CC1 (stereo not shown) [Compound 266, 1-(1-(3,4-dichlorophenyl)-4-phenoxycyclohexyl)-N,N-dimethylmethanamine] | – | – | IC50 ([1]; read-out: Human IC50 (nM) hDAT): 859 nM; IC50 [2, 6]: 168 nM
CN(C)CC1(c2ccc3c(c2)OCO3)CCC(O)CC1 (stereo not shown) [Compound 238, 4-(benzo[d][1,3]dioxol-5-yl)-4-((dimethylamino)methyl)cyclohexanol] | 5720 | 1180 | –
NCC1(c2ccc3ccccc3c2)CCC(Cl)CC1 (stereo not shown) [Compound 211, (4-chloro-1-(naphthalen-2-yl)cyclohexyl)methanamine] | 195 | 55 | –
CNCC1(c2ccc3c(c2)OCO3)CCCCC1 [Compound 103, 1-(1-(benzo[d][1,3]dioxol-5-yl)cyclohexyl)-N-methylmethanamine] | 7740 | – | IC50 [2, 5]: 3540 nM
CN(C)CC1(c2ccc(Cl)c(Cl)c2)CCC2(CC1)OCCO2 [Compound 271, 1-(8-(3,4-dichlorophenyl)-1,4-dioxaspiro[4.5]decan-8-yl)-N,N-dimethylmethanamine] | 197 | – | IC50 [2, 6]: 79 nM
CNCC1(c2ccc(Cl)c(Cl)c2)CCC(C)(O)CC1 (stereo not shown) [Compound 273, 4-(3,4-dichlorophenyl)-1-methyl-4-((methylamino)methyl)cyclohexanol] | 528 | 830 | –
CN(C)CC1(c2ccc3c(c2)OCO3)CCC(C)(O)CC1 (stereo not shown) [Compound 242, 4-(benzo[d][1,3]dioxol-5-yl)-4-((dimethylamino)methyl)-1-methylcyclohexanol] | > 10000 | 7660 | –
CC(N(C)C)C1(c2cccc3ccccc23)CCCCC1 (single isomer, unassigned) [60 E2, N,N-dimethyl-1-(1-(naphthalen-1-yl)cyclohexyl)ethanamine] | 6740 | 4630 | –
OC1CCCCC1NCC1(c2ccc(Cl)c(Cl)c2)CCCCC1 (racemic) [Compound 117, 2-((1-(3,4-dichlorophenyl)cyclohexyl)methylamino)cyclohexanol] | 33 | 7900 | –

Compound | IC50 [1, 3] [nM] | IC50 [2, 4] [nM] | further results
CN(C)CC1(c2ccc(Cl)c(Cl)c2)CCC(C)(O)CC1 (stereo not shown) [Compound 274, 4-(3,4-dichlorophenyl)-4-((dimethylamino)methyl)-1-methylcyclohexanol] | 251 | 809 | –
CSc1ccc(C2(CN(C)C)CCCCC2)cc1 [Compound 52, N,N-dimethyl-1-(1-(4-(methylthio)phenyl)cyclohexyl)methanamine] | – | 44 | IC50 ([1]; Human IC50 (nM) hDAT): 176 nM
CNC(C)C1(c2ccc(OC(F)(F)F)cc2)CCCCC1 (single isomer, unassigned) [64 E2, N-methyl-1-(1-(4-(trifluoromethoxy)phenyl)cyclohexyl)ethanamine] | – | 32 | IC50 ([1]; Human IC50 (nM) hDAT): 3640 nM
CN(C)CC1(c2ccc3ccccc3c2)CCC(O)(CF)CC1 (stereo not shown) [Compound 246, 4-((dimethylamino)methyl)-1-(fluoromethyl)-4-(naphthalen-2-yl)cyclohexanol] | 282 | 43 | –
CC(N(C)C)C1(c2ccc(OC(F)(F)F)cc2)CCCCC1 (single isomer, unassigned) [63 E1, N,N-dimethyl-1-(1-(4-(trifluoromethoxy)phenyl)cyclohexyl)ethanamine] | 6540 | 194 | –
CC(N(C)C)C1(c2ccc(OC(F)(F)F)cc2)CCCCC1 (single isomer, unassigned) [63 E2, N,N-dimethyl-1-(1-(4-(trifluoromethoxy)phenyl)cyclohexyl)ethanamine] | 1820 | 2 | –
CNCC1(c2ccc(Cl)c(Cl)c2)CCC2(CC1)OCCO2 [Compound 270, 1-(8-(3,4-dichlorophenyl)-1,4-dioxaspiro[4.5]decan-8-yl)-N-methylmethanamine] | 376 | 469 | –
NCC1(c2ccc(C(F)(F)F)cc2)CCCCC1 [Compound 34, (1-(4-(trifluoromethyl)phenyl)-cyclohexyl)methanamine] | 5320 | – | IC50 [2, 5]: > 10000 nM
CN(C)CC1(c2ccc3ccccc3c2)CCC(O)(CF)CC1 (stereo not shown) [Compound 244, 4-((dimethylamino)methyl)-1-(fluoromethyl)-4-(naphthalen-2-yl)cyclohexanol] | 334 | 14 | –
NCC1(c2ccc(Cl)c(Cl)c2)CCC(O)CC1 (stereo not shown) [Compound 262, 4-(aminomethyl)-4-(3,4-dichlorophenyl)cyclohexanol] | 4280 | – | IC50 [2, 6]: > 10000 nM
NCC1(c2ccc3ccccc3c2)CCC(F)CC1 (stereo not shown) [Compound 213, (4-fluoro-1-(naphthalen-2-yl)cyclohexyl)methanamine] | 337 | 283 | –
NCC1(c2cccc(F)c2)CCCCC1 [Compound 37, (1-(3-fluorophenyl)cyclohexyl)methanamine] | > 10000 | – | IC50 [2, 5]: > 10000 nM
CSc1ccc(C2(CN)CCCCC2)cc1 [Compound 10, (1-(4-(methylthio)phenyl)cyclohexyl)methanamine] | 2930 | – | IC50 [2, 5]: 1910 nM
NCC1(c2ccc(Cl)c(Cl)c2)CCC(O)C1 (stereo not drawn) [cis 167, 3-(aminomethyl)-3-(3,4-dichlorophenyl)cyclopentanol] | 2220 | – | IC50 [2, 5]: > 10000 nM
CNCC1(c2ccc(OC)cc2)CCCCC1O (single isomer, unassigned) [139 E1, cis-2-((methylamino)methyl)-2-(4-methoxyphenyl)cyclohexanol] | > 10000 | > 10000 | –
NCC1(c2ccc(Cl)c(Cl)c2)CCC(O)C1 (stereo not drawn) [trans 167, 3-(aminomethyl)-3-(3,4-dichlorophenyl)cyclopentanol] | 145 | – | IC50 [2, 5]: 4910 nM
CNCC1(c2ccc(Cl)c(Cl)c2)CCC(F)CC1 (stereo not shown) [Compound 264, 1-(1-(3,4-dichlorophenyl)-4-fluorocyclohexyl)-N-methylmethanamine] | 17 | 1050 | –
CCC1(O)CCC(CN(C)C)(c2ccc(Cl)c(Cl)c2)CC1 (stereo not shown) [Compound 283, 4-(3,4-dichlorophenyl)-4-((dimethylamino)methyl)-1-ethylcyclohexanol] | 37 | 20 | –
CNCC1(c2ccc3ccccc3c2)CCC(C)(O)CC1 (stereo not shown) [Compound 223, 1-methyl-4-((methylamino)methyl)-4-(naphthalen-2-yl)cyclohexanol] | – | 73 | IC50 ([1]; read-out: Human IC50 (nM) hDAT): 874 nM
NCC1(c2ccc(Cl)c(Cl)c2)CCC(Oc2ccccc2)CC1 (stereo not shown) [Compound 265, (1-(3,4-dichlorophenyl)-4-phenoxycyclohexyl)methanamine] | 1450 | 109 | –
NCC1(c2ccc3cc(F)ccc3c2)CCCCC1 [Compound 39, (1-(6-fluoronaphthalen-2-yl)cyclohexyl)methanamine] | 2240 | 295 | –
CCC1(O)CCC(CN)(c2ccc(Cl)c(Cl)c2)CC1 (stereo not shown) [Compound 281, 4-(aminomethyl)-4-(3,4-dichlorophenyl)-1-ethylcyclohexanol] | 384 | 256 | –
